Earlier results as cited in US12594236B2, “Method of treating acute exacerbation of schizophrenia with long-acting injectable depot composition” (LABORATORIOS FARMACEUTICOS ROVI, S.A., priority 2021, dated 2026).
Read-outs that look alike come from different tables or passages of the source.

Test system: acute schizophrenia

SMILES | placebo-adjusted reduction of the PANSS total score (441 mg, 12 weeks, oral aripiprazole 3 weeks after randomization) | placebo-adjusted reduction of the PANSS total score (882 mg, 12 weeks, oral aripiprazole 3 weeks after randomization) | placebo-adjusted reduction of the PANSS total score (25 mg eq, 13 weeks) | placebo-adjusted reduction of the PANSS total score (100 mg eq, 13 weeks) | placebo-adjusted reduction of the PANSS total score (150 mg eq, 13 weeks)
CCCCCCCCCCCC(=O)OCN1C(=O)CCc2ccc(OCCCCN3CCN(c4cccc(Cl)c4Cl)CC3)cc21 [Aripiprazole Lauroxil] | −10.9 | −11.9 | – | – | –
CCCCCCCCCCCCCCCC(=O)OC1CCCn2c1nc(C)c(CCN1CCC(c3noc4cc(F)ccc34)CC1)c2=O (centres unmarked) [Paliperidone Palmitate] | – | – | −5.1 | −8.7 | −9.8
